In BindingDB's records for patent US11912693 (Trevena, 2024) one finds EC50 data, which are given here for nine compounds.

Test [1] deals with T1, Sphingosine 1-phosphate receptor 1 (Homo sapiens, UniProt P21453). The test can be described thus: Beta-Arrestin2 Recruitment Assay. Here is the method: Agonist-promoted β-arrestin2 recruitment to the sphingosine-1-phosphate 1 receptor was determined using the β-arrestin PathHunter ) Detection kit (DiscoverX Corporation, Cat #: 93-0001). […] In cells that stably express these fusion proteins, stimulation with a cognate agonist results in the interaction of 0-arrestin2 and the Prolink -tagged GPCR. This allows the complementation of the two β-galactosidase fragments and results in the formation of a functional enzyme with β-galactosidase activity. […] Following a 60 minute incubation at 37 C. and 5% CO2 in a humidified CO2 and temperature-controlled incubator, the components of the β-arrestin PathHunter Detection kit were added as per the manufacturer's instructions. After an hour incubation at room temperature, plates were analyzed by a BMG PheraStar microplate reader.
In general terms: Recruitment of arrestin is a read-out of receptor activation apart from second messengers.

Test [2] deals with T1, Sphingosine 1-phosphate receptor 1. The test can be described thus: Detecting Inhibition of cAMP Production. How it is done: Agonist-promoted G-protein responses were determined by measuring changes in intracellular cAMP using the HTRF cAMP HiRange kit (CisBio, Cat #: 62AM6PEJ) based on time-resolved fluorescence resonance energy transfer (TR-FRET) technology. […] Following a 30-minute incubation at 37 C. and 5% CO2 in a humidified CO2 and temperature-controlled incubator, the components of the cAMP HiRange kit were added as per the manufacturer's instructions. After an hour incubation at room temperature, plates were analyzed by a BMG PheraStar microplate reader.

T1 sequence (P21453 whole entry, the tested form may be a part): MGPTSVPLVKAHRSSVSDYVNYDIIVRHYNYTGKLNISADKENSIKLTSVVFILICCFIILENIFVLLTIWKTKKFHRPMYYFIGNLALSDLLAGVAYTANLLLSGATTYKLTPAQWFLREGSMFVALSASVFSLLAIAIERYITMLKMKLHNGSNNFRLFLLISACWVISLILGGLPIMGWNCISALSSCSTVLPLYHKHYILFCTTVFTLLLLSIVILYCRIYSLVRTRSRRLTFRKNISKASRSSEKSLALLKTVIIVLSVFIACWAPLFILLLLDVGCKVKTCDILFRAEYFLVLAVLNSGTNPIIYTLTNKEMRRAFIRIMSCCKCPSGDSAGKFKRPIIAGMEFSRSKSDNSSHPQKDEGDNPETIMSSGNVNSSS

Take `CC(C)N1NNc2cc(-c3nc(-c4sccc4Cl)co3)ccc21` [US11912693, Compound 463]: the values for the EC50 in test [1] and in test [2] were < 10 µM and < 316 nM, respectively.
Consider `CC(C)n1nnc2cc(-c3nc(-c4ccccc4Cl)co3)ccc21` [US11912693, Compound 163], for which the EC50 was < 10 µM in test [1] and < 316 nM in test [2].
As to `Cc1cc(-c2noc(-c3ccc4c(c3)nnn4C3CCCC3)n2)ccn1` [US11912693, Compound 77], the EC50 in test [1] was > 10 µM; in test [2], > 316 nM.
`CC(C)N1NNc2cc(-c3nc(-c4cn[nH]c4)no3)ccc21` [US11912693, Compound 646]: the figures for the EC50 in test [1] and in test [2] were > 10 µM and > 316 nM, respectively.
For the compound `Cc1cc(-c2noc(-c3ccc4c(c3)NNN4CC(C)(C)O)n2)c(C)o1` [US11912693, Compound 493], the values for the EC50 in test [1] and in test [2] were > 10 µM and > 316 nM, respectively.
In the same order, the values of `Cc1cc(-c2noc(-c3ccc4c(c3)NNN4C(C)C)n2)c(C)o1` [US11912693, Compound 490] are < 10 µM and < 316 nM.
For `Cc1occc1-c1noc(-c2ccc3c(c2)NNN3C(C)C)n1` [US11912693, Compound 491] the same measures were < 10 µM and < 316 nM.
For `CC(C)N1NNc2cc(-c3nc(-c4cccnc4Cl)no3)ccc21` [US11912693, Compound 499], the EC50 in test [1] is < 10 µM; in test [2], < 316 nM.
Consider `Cc1ccccc1-c1nc(-c2ccc3c(c2)NNN3CC(C)(C)O)no1` [US11912693, Compound 593], for which the 50% effective concentration (EC50) in test [1] was < 10 µM; in test [2], < 316 nM.

For orientation: EC50 means the concentration giving half of the maximal effect. A higher EC50 goes with a need for much substance.
